The values that follow come from patent publication US9452998B2, “Protein kinase C inhibitors and methods of their use” (NOVARTIS AG, priority 2014, dated 2016).

For data set [1] the following is noted: Mouse C57BL/6; Dose IV: 1 mg/kg PO: 10 mg/kg.
The conditions of data set [2]: Rat Wistar-Han; Dose 0.3 mg/kg PO: 3 mg/kg.
Data set [3] can be described thus: in vivo. The following applies: C57BL/6, mouse.
Data set [4] in a line: in vivo. The following applies: Wistar-Han, rat.

By half-life is commonly meant how long it takes for the measured level to halve. One may read the Vd as the apparent volume that relates the amount in the body to the concentration in plasma or blood. Read a low Vd as confinement near the circulation. By clearance is commonly meant the volume of plasma or blood freed of the substance per unit of time. Read a high clearance as a high capacity for elimination. As usually defined, the Cmax is the maximum level reached in the sampled fluid or tissue. As usually defined, the Tmax is the time at which the peak concentration occurs. By AUC is commonly meant the area under the concentration-time curve, a measure of exposure. Low values mean less exposure, high ones more exposure. Turning to `Nc1ncc(-c2ncccc2OC(F)(F)F)nc1C(=O)Nc1ncccc1N1CCC(N)CC1` [Example 2, 3-amino-N-(3-(4-aminopiperidin-1-yl)pyridin-2-yl)-6-(3-(trifluoromethoxy)pyridin-2-yl)pyrazine-2-carboxamide], the “Oral BA (% F)” value in data set [1] came to 6 % F. The “Vss” value in data set [2] worked out at 1.1 L/kg. The molecule also gave a half-life in the data set “in vivo [3]” of 30 min. In the data set “in vivo [3]” (intravenous, 1 mg/kg), this molecule returned a volume of distribution (Vd) of 0.4 L/kg and a clearance of 14 mL/min/kg. In “in vivo [3]” (po, 10 mg/kg), the peak level (Cmax) was 946 nM and the Tmax turned out to be 18 min. Moreover, the AUC in the data set “in vivo [4]” (iv, 0.3 mg/kg) was found to be 0.38 µM·h. In the data set “in vivo [4]” (po, 3 mg/kg), the area under the curve (AUC) was 2.77 µM·h, the Cmax was 756 nM and the time to peak (Tmax) is 90 min.
